Laboratory results as given in patent US9616006B2, “Methods and compositions for treating dermatological diseases and conditions” (priority 2007, dated 2017).

Tested on: IL-8
Assay: TPA-induced IL-8 production in keratinocytes (ELISA)
Assay type: cell-based, human
Conditions: Homo sapiens, Keratinocyte, read-out: Percent Inhibition of IL-8

## CC=Cc1ccc(O)c(OC)c1 [IE, isoeugenol]
  inhibition at 100 µM: 75%
